What was measured:
MDA-MB468 = assay: XTT assay, anti-proliferative activity, MDA-MB468; type: cell-based; settings: Homo sapiens, MDA-MB-468; 45 h incubation
Experimental: (§1) The principle of this test is based on the intracellular reduction of the tetrazolium dye XTT (sodium 3′-[1-(phenylaminocarbonyl)-3,4-tetrazolium]bis(4-methoxy-6-nitro)benzenesulphonic acid, Sigma) to a formazan dye by mitochondrial dehydrogenases. The dye is formed only by metabolically active cells. Its photometrically measurable intensity is a quantitative indicator for the presence of living cells. The reduction in the dye formation as a result of incubation of the cells with substances serves as a parameter for the anti-proliferative activity.
(§2) The tumour cell lines (ATCC) were seeded in 96-well microtitre plates in a defined cell count (5000 cells/well for Hct116; 10000 cells/well for MDA MB468), and incubated overnight at 37° C., 5% CO2 and 95% air humidity. The test substances were made up as stock solutions (10 mM) in DMSO. […] The cell plates were then incubated for 45 h at 37° C., 5% CO2 and 95% air humidity.
(§3) For the detection reaction, the XTT substrate was mixed with PMS (N-methyldibenzopyrazine methylsulphate, Sigma) and added to the cells, to result in a final concentration of 325 μg of XTT/ml and 2.5 μg PMS/ml. The mixture was then incubated for 3 h at 37° C., 95% air humidity. Subsequently the formazan salt formed by cellular dehydrogenases was quantified at an absorption of 490 nm.
(§4) The evaluation of the % inhibition values was done by means of the following formula from the values for the optical densities measured in each case at 490 nm:
(§5) The controls were determined 8 fold, the substance samples 2 fold. 0% control contained no cells and the 100% control contained no test substance. The EC50 values were determined with GraphPadPrism.

Jnk1 + Jnk2 = tested on: T1, Jnk1 + Jnk2; assay: Cell-free kinase assay (ALPHA technology) Jnk1 + Jnk2; type: biochemical, human; settings: 10 μM ATP
T1 construct: fused on or other part: GST tag or His tag (commercial recombinant fusion proteins from Proqinase or Upstate)
Experimental: (§6) The inhibitory effect of the compounds of the invention was tested on various human serine/threonine kinases, tyrosine kinases and lipid kinases in enzymatic assays. Recombinant human kinases, for example PI3Kalpha, -beta, -gamma, -delta, Erk2, p38alpha, p38gamma, Jnk1, Jnk2 and others were used, in some cases as full-length kinases, in some cases as truncated fragments—but at least consisting of the functional kinase domains. The commercial kinase proteins (Proqinase, Upstate) were used as recombinant fusion proteins with GST (glutathione S-transferase) tag or His tag. Depending on the substrate type, the different kinase reactions were quantified by suitable ALPHA™ beads (PerkinElmer).
(§7) The kinase assays for PI3K and Erk are described in detail and selected test results are cited below. […] Subsequently, the kinase reaction was stopped by adding the ALPHA bead mix (10 μg/ml, #6760603/PerkinElmer), preincubated with 1 nM GST:Grp1 fusion protein (Upstate) and […] (#C-39B6/Echelon) in 50 mM Hepes, 50 mM NaCl, 50 mM EDTA and 0.1% BSA, and left to stand overnight. • b) Erk2-ALPHA: The test substance, 0.625 ng of Erk2 (#14-173, Upstate), 10 μM ATP and 15 nM biotinylated MBP (myelin basic protein) substrate were incubated on a 384-well Optiplate (Perkin Elmer) in a volume of 15 μl for 1 h in 25 mM Tris, 10 mM MgCl2, 0.1% Tween-20, 100 μM NaVO4, 2 mM DTT at pH 7.5. The kinase reaction was stopped by adding 10 μl of the ALPHA bead mix (10 μg/ml, #6760617/PerkinElmer), pre-incubated with anti-phospho MBP antibody (320 pM, #05-429/Upstate), in 25 mM Tris, 200 mM NaCl, 100 mM EDTA and 0.3% BSA, and left to stand overnight.
(§8) The luminiscence was detected the next morning in a Fusion™ alpha instrument (Perkin Elmer).
(§9) The calculation of % inhibition values per substance concentration was done by means of the following formula from the raw data determined in the Fusion™ alpha:
(§10) The controls were determined 8 fold and the substance samples 2 fold. 0% control contained neither any ATP nor any substrate. The 100% control contained no test substance. The IC50 values were determined with GraphPadPrism.

Phospho-Akt (Ser 473) = assay: Cellular substrate phosphorylation (Western blotting), PI3K →pAkt; type: cell-based, human; settings: for inhibition at 50 µM: Homo sapiens, 5 h; for inhibition of cellular phospho-Akt / PI3K-Akt pathway, in words: Western blotting, concentrations of 5-50 μM
Experimental: (§11) This method enables a statement of whether the kinase modulator investigated achieves the desired effect in a cellular context too, i.e., in this case, a substrate protein downstream of the target kinase is examined for its phosphorylation status. To this end, the cells incubated with substance are lysed and the overall protein is separated on a reducing polyacrylamide gel. Subsequently, the proteins are transferred to a PVDF membrane by Western blotting and the substrate bands sought are made visible with specific antibodies and a suitable detection method. The substrate proteins down-stream of the target kinases are detected simultaneously with an anti-phospho antibody which is specific in each case and a total antibody which recognizes the substrate total protein. The duplex technology of the ODYSSEY imager (LiCOR) enables this simultaneous measurement. The intensity of the total substrate bands is employed to normalize and quantify the phosphorylation inhibition or activation.
(§12) Suitable tumor cell lines (e.g. BxPC3, Hct116 or MDA MB468) were seeded into 6-well microtitre plates in a defined cell count (e.g. 350 000 cells/well for BxPC3 and Hct116) in the particular standard complete media and then incubated overnight at 37° C., 5% CO2 and 95% air humidity. Afterwards, the cells were incubated for 24 h under serum-reduced conditions, i.e. in the particular medium except at only 0.25% serum. The test substances were made up as stock solutions (10 mM) in DMSO and incubated with the cells at final concentrations of 5, 15.8 and 50 μM for 5 h. This was followed by cell lysis in 25 mM Tris, 150 mM NaCl, 10 mM sodium pyrophosphate, 2 mM EGTA, 25 mM beta-glycerophosphate, 25 mM NaF, 10% glycerol, 0.75% NP-40, 100 μM NaVO4 buffer. After protein quantification using the BCA (bicinchonic acid protein assay kit, Sigma) assay, amounts of protein of about 20 μg per track were separated on a Lämmli polyacrylamide gel and then transferred onto a PVDF membrane (Millipore) by semi-dry Western blotting at 0.8 mA/cm^2 for 1 h. This was followed by prehybridization of the membrane for 1 hour in I-block reagent (Applied Biosystems) and overnight simultaneous incubation with the specific antibodies. […] After the membrane had been washed, the secondary antibodies were incubated with anti-rabbit IR Dye 800 (#611-732-127, Rockland) for the phospho antibodies and anti-goat Alexa Fluor 680 (#A-21081, […]) for the total protein antibodies. After incubation for 30 min at room temperature in the dark, the hybridization of the detection antibody was detected on the membrane by scanning in an ODYSSEY imager (LiCOR).

p38alpha = p38alpha (Homo sapiens, UniProt Q16539); assay: Cell-free kinase assay (ALPHA technology) p38alpha; type: biochemical; settings: 10 μM ATP
Experimental: as §6, §7, §8, §9, §10

PI3Kalpha = target: T2, PI3Kalpha (Homo sapiens, UniProt P42336); assay: Cell-free kinase assay PI3K-ALPHA; type: biochemical
T2 construct: purchased Upstate #14-602
Experimental: as §6, §7, §8, §9, §10

[1] = Cell-free kinase assay Erk2-ALPHA; type: biochemical, human; settings: cell-free kinase assay; MAPK = Erk2, p38alpha, Jnk1+Jnk2 of Table 1
Experimental: as §6, §7, §8, §9, §10

Erk2 = target: T3, Erk2 (Mus musculus, UniProt P63085); assay: Cell-free kinase assay Erk2-ALPHA; type: biochemical, human; settings: 10 μM ATP
T3 construct: purchased Upstate #14-173
Experimental: as §6, §7, §8, §9, §10

Hct116 = assay: XTT assay, anti-proliferative activity, Hct116; type: cell-based; settings: Homo sapiens, HCT-116; 45 h incubation
Experimental: as §1, §2, §3, §4, §5

Phospho-p90RSK (S380) = assay: Cellular substrate phosphorylation (Western blotting), Erk →pRsk; type: cell-based, human; settings: for inhibition at 50 µM: Homo sapiens, 5 h; for inhibition of phospho-Rsk / Raf-Mek-Erk pathway, in words: Western blotting, concentrations of 5-50 μM
Experimental: as §11, §12

T2 sequence (P42336 whole entry): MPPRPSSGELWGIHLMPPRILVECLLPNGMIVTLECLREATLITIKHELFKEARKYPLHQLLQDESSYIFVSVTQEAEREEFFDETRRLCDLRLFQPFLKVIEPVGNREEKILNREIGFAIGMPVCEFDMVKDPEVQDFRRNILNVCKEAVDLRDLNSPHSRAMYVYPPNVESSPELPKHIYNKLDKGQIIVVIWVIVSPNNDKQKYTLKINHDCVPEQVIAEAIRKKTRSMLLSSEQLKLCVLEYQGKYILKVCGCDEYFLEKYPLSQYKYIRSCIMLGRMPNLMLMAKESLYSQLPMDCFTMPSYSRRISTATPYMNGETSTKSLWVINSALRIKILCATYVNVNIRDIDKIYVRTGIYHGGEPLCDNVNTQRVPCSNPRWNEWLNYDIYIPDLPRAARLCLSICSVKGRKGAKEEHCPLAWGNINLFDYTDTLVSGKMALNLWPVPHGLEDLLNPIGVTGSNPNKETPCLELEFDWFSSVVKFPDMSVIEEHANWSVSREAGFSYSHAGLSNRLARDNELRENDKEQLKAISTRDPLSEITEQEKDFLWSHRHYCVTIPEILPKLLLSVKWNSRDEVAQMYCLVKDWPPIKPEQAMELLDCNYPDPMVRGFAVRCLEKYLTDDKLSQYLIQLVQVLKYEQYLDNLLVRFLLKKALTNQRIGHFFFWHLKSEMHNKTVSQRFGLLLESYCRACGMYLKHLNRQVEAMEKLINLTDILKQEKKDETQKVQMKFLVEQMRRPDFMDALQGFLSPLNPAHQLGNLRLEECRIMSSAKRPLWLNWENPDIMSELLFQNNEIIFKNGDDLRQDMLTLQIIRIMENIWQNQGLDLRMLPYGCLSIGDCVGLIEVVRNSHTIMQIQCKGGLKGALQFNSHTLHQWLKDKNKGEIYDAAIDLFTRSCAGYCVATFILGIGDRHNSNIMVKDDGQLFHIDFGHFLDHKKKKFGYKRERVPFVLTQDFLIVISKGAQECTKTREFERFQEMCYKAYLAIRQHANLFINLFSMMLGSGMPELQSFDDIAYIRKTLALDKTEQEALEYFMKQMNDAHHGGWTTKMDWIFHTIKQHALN
T2 sequence (P27986 whole entry partner): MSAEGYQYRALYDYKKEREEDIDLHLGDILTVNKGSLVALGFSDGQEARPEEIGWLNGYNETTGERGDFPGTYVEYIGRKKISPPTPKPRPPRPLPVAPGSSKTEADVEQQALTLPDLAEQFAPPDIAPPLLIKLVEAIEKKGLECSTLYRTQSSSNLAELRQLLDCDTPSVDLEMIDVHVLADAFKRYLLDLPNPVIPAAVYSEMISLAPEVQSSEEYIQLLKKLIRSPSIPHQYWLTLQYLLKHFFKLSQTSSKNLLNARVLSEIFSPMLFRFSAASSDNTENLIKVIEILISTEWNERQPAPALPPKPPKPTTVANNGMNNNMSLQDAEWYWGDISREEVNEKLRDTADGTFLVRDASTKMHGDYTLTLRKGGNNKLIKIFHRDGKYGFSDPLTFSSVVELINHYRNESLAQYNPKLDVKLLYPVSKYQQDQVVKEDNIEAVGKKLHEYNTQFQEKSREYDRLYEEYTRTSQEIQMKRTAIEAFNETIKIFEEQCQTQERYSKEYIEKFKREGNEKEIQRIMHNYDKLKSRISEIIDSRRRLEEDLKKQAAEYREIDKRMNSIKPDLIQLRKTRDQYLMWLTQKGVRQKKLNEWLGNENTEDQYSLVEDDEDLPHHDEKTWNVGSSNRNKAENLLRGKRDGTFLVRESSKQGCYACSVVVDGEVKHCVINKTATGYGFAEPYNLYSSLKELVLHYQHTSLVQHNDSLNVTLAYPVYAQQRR
Chain of p38alpha (Q16539 whole entry): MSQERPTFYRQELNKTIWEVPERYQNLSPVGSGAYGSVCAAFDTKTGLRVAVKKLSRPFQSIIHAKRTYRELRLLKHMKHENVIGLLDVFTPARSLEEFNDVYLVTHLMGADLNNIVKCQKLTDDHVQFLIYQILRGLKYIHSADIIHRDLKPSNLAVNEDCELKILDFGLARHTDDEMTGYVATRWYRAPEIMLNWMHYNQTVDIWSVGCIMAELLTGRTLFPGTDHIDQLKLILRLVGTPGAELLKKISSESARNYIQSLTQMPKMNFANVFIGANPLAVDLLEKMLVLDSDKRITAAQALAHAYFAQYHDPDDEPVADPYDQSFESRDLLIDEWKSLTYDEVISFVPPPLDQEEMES
T3 sequence (P63085 whole entry): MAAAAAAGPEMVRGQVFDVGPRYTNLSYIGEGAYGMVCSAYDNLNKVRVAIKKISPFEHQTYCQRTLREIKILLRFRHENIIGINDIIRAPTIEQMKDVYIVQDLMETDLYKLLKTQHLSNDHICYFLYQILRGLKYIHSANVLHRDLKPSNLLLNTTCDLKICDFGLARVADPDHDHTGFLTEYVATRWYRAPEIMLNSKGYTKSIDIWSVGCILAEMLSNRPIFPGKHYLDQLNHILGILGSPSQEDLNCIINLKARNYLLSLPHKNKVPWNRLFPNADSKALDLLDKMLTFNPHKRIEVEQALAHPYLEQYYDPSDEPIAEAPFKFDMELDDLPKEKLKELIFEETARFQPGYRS

Row | SMILES | EC50 (MDA-MB468) | melting point | IC50 (Jnk1 + Jnk2) | IC50 (p38alpha) | PI3K inhibition, in words (PI3Kalpha) | Erk2 / MAPK inhibition, in words [1] | IC50 (Erk2) | EC50 (Hct116) | inhibition at 50 µM (Phospho-Akt (Ser 473)) | inhibition of cellular phospho-Akt / PI3K-Akt pathway, in words (Phospho-Akt (Ser 473)) | inhibition at 50 µM (Phospho-p90RSK (S380)) | inhibition of phospho-Rsk / Raf-Mek-Erk pathway, in words (Phospho-p90RSK (S380))
1 | CCNC(=O)Nc1cnc2ccc(-c3ccc(O)c(OC)c3)nc2n1 [Compound 5, 1-Ethyl-3-[6-(4-hydroxy-3-methoxy-phenyl)-pyrido[2,3-b]pyrazin-3-yl]-urea] | < 1 µM | – | > 10 µM | > 100 µM | low IC50 values against PI3K | – | > 100 µM | < 2 µM | 100% | total inhibition of cellular phospho-Akt at compound concentrations <50 μM | 0% | phospho-Rsk is not inhibited
2 | CCNC(=O)Nc1ccc2ncc(Nc3cccc(OC(F)F)c3)nc2n1 [Compound 73, 1-[3-(3-Difluoromethoxy-phenylamino)-pyrido[2,3-b]pyrazin-6-yl]-3-ethyl-urea] | < 5 µM | – | > 100 µM | > 10 µM | PI3K inhibition | no or only moderate MAPK inhibition | > 100 µM | < 5 µM | – | – | – | –
3 | CCNC(=O)Nc1cnc2ccc(-c3cc(C)c(O)c(C)c3)nc2n1 [Compound 181, 1-Ethyl-3-[6-(4-hydroxy-3,5-dimethyl-phenyl)-pyrido[2,3-b]pyrazin-3-yl]-urea] | < 10 µM | > 240 °C | > 100 µM | < 50 µM | – | – | > 100 µM | < 10 µM | – | – | – | –
4 | CCNC(=S)Nc1ccc2ncc(Nc3cc(OC)c(OC)c(OC)c3)nc2n1 [Compound 160, 1-Ethyl-3-[3-(3,4,5-trimethoxy-phenylamino)-pyrido[2,3-b]pyrazin-6-yl]-thiourea] | < 1 µM | 268 °C | > 100 µM | < 50 µM | – | – | < 31.6 µM | < 1 µM | – | – | – | –

Second part, led by results:

Row | EC50 (MDA-MB468) | melting point | IC50 (Jnk1 + Jnk2) | IC50 (p38alpha) | PI3K inhibition, in words (PI3Kalpha) | Erk2 / MAPK inhibition, in words [1] | IC50 (Erk2) | EC50 (Hct116) | SMILES | inhibition at 50 µM (Phospho-Akt (Ser 473)) | inhibition of cellular phospho-Akt / PI3K-Akt pathway, in words (Phospho-Akt (Ser 473)) | inhibition at 50 µM (Phospho-p90RSK (S380)) | inhibition of phospho-Rsk / Raf-Mek-Erk pathway, in words (Phospho-p90RSK (S380))
5 | < 5 µM | 227 to 229 °C | < 31.6 µM | > 100 µM | inhibition of PI3K | inhibition of PI3K and Erk2 | < 0.5 µM | < 5 µM | CCNC(=O)Nc1ccc2ncc(-c3ccc(OC(C)=O)c(OC)c3)nc2n1 [Compound 54, Acetic acid 4-[6-(3-ethyl-ureido)-pyrido[2,3-b]pyrazin-3-yl]-2-methoxy-phenyl ester] | 100% | inhibit both | 90% | inhibit both
6 | < 5 µM | 243 to 246 °C | > 100 µM | < 10 µM | PI3K inhibition | no or only moderate MAPK inhibition | > 100 µM | < 5 µM | CCNC(=O)Nc1ccc2ncc(Nc3ccccc3O)nc2n1 [Compound 55, 1-Ethyl-3-[3-(2-hydroxy-phenylamino)-pyrido[2,3-b]pyrazin-6-yl]-urea] | 90% | cellular PI3K selectivity | 0% | do not block the Raf-Mek-Erk pathway
7 | < 5 µM | 272 °C | > 31.6 µM | > 100 µM | – | – | > 100 µM | < 5 µM | CCNC(=S)Nc1ccc2ncc(Nc3ccc(OC)c(O)c3)nc2n1 [Compound 147, 1-Ethyl-3-[3-(3-hydroxy-4-methoxy-phenylamino)-pyrido[2,3-b]pyrazin-6-yl]-thiourea] | – | – | – | –
8 | < 5 µM | 216 to 219 °C | < 31.6 µM | < 10 µM | – | – | < 31.6 µM | < 5 µM | COc1cc(-c2ccc3ncc(NC(=O)Nc4cccs4)nc3n2)ccc1O [Compound 614, 1-[6-(4-Hydroxy-3-methoxy-phenyl)-pyrido[2,3-b]pyrazin-3-yl]-3-thiophen-2-yl-urea] | – | – | – | –

Source: patent publication US8536332B2, “Modulating signal transduction pathways with substituted pyridol [2,3-b] pyrazines” (Aeterna Zentaris GmbH, priority 2007, dated 2013)
